Consider six molecules from patent US10800789B2, “Antiviral compounds” (Gilead Pharmasset LLC, priority 2012, dated 2020).

Test [1] deals with stable HCV 1b RLuc replicon cells (dicistronic genotype 1b Con1 replicon). As to the kind of experiment: Renilla luciferase HCV replicon reporter assay, genotype 1b. Format: cell-based. Conditions: Hepatitis C virus, 72 h, stable 1b Con1 RLuc replicon cells, 72 hours; read-out: 1b. How it is done: (§1) Evaluation of Cell-Based Anti-HCV Activity:
(§2) Antiviral potency (EC50) was determined using a Renilla luciferase (RLuc)-based HCV replicon reporter assay. To perform the assay for genotype 1 and 2a JFH-1, stable HCV 1a RLuc replicon cells (harboring a dicistronic genotype 1a H77 replicon that encodes a RLuc reporter), stable HCV 1b RLuc replicon cells (harboring a dicistronic genotype 1b Con1 replicon that encodes a RLuc reporter), or stable HCV 2a JFH-1 Rluc replicon cells (harboring a dicistronic genotype 2a JFH-1 replicon that encodes a RLuc reporter; with L31 present in NS5A) were dispensed into 384-well plates for EC50 assays. To perform the assay for genotype 2a (with M31 present in NS5A) or 2b, NS5A chimeric genotype 2a JFH-1 replicons that encodes a RLuc-Neo reporter and either genotype 2a J6 strain NS5A gene or genotype 2b MD2b-1 strain NS5A gene (both with M31 present) respectively, were either transiently transfected (t) into Huh-Lunet cells or were established as stably replicating replicon cells (s) is provided. Either cells were dispensed into 384-well plates for EC50 assays. To perform the assay for genotype 3 and 4, NS5A chimeric genotype 1b Con1 replicons that encodes a Pi-RLuc reporter and either genotype 3a S52 strain NS5A gene or genotype 4a ED43 strain NS5A gene respectively, were transiently transfected (t) into Huh-Lunet cells, which were subsequently dispensed into 384-well plates. Compounds were dissolved in DMSO at a concentration of 10 mM and diluted in DMSO either manually or using an automated pipeting instrument. Serially 3-fold diluted compounds were either manually mixed with cell culture media and added to the seeded cells or directly added to the cells using an automated instrument. DMSO was used as a negative (solvent; no inhibition) control, and the protease inhibitor ITMN-191 was included at a concentration>100×EC50 as a positive control. 72 hours later, cells were lysed and Renilla luciferase activity quantified as recommended by the manufacturer (Promega-Madison, Wis.). Non-linear regression was performed to calculate EC50 values.

Test [2] has as its system stable HCV 1a RLuc replicon cells (dicistronic genotype 1a H77 replicon). As to the kind of experiment: Renilla luciferase HCV replicon reporter assay, genotype 1a. The test is classed as cell-based. Conditions: Hepatitis C virus, 72 h, stable 1a H77 RLuc replicon cells. The procedure: as §1, §2
For orientation: Replicon systems follow genome replication, usually without infectious particles.

Test [3] deals with stable HCV 2a JFH-1 Rluc replicon cells (L31 present in NS5A). As to the kind of experiment: Renilla luciferase HCV replicon reporter assay, genotype 2a JFH-1. The test is classed as cell-based. Conditions: Hepatitis C virus. The procedure: as §1, §2
Test [4] relates to NS5A chimeric genotype 2a JFH-1 replicon with genotype 2a J6 strain NS5A gene (M31 present). As to the kind of experiment: Replicon assay, genotype 2a J6 NS5A chimera. Format: cell-based, HCV. Particulars: Hepatitis C virus. The procedure: as §1, §2
The test system of test [5] is NS5A chimeric genotype 2a JFH-1 replicon with genotype 2b MD2b-1 strain NS5A gene (M31 present). As to the kind of experiment: Replicon assay, genotype 2b NS5A chimera. Format: cell-based, HCV. Conditions: Hepatitis C virus. The procedure: as §1, §2
Test [6] concerns NS5A chimeric genotype 1b Con1 replicon with genotype 3a S52 strain NS5A gene. As to the kind of experiment: Replicon assay, genotype 3a NS5A chimera. Format: cell-based, HCV. Conditions: Hepatitis C virus.
Test [7] concerns NS5A chimeric genotype 1b Con1 replicon with genotype 4a ED43 strain NS5A gene. As to the kind of experiment: Replicon assay, genotype 4a NS5A chimera. Format: cell-based, HCV. Particulars: Hepatitis C virus.
Setting [8] is: read-out: 2a JFH (nM), genotype 2a JFH-1 replicon (L31 in NS5A), stable cells.
Setting [9] is: read-out: 2a JFH, stable 2a JFH-1 Rluc replicon cells, L31 in NS5A, activity range.
[10] abbreviates: read-out: 2a J6 (t) (nM), genotype 2a J6 NS5A chimeric replicon (M31), transiently transfected (t) into Huh-Lunet cells.
Setting [11] is: read-out: 2a J6 (t), transiently transfected (t) into Huh-Lunet cells, activity range.
[12] abbreviates: 2BS, read-out: 2b (s), stably replicating replicon cells (s), activity range.
Where [13] appears, read: read-out: 2b (s) (nM), genotype 2b MD2b-1 NS5A chimeric replicon (M31), stably replicating replicon cells (s).
[14] abbreviates: read-out: 3a (s) (nM), genotype 3a NS5A chimeric replicon, stable replicon cells (s).
[15] abbreviates: read-out: 3a (s), (s), activity range.
The mark [16] stands for this setting: read-out: 4a (s) (nM), genotype 4a NS5A chimeric replicon, stable replicon cells (s).
The mark [17] stands for this setting: read-out: 4a (s), (s), activity range.
The mark [18] stands for this setting: read-out: 3a (t) (nM), genotype 3a NS5A chimeric replicon, transiently transfected (t).
[19] abbreviates: read-out: 3a (t), transiently transfected (t) into Huh-Lunet cells, activity range.

Where two headings read alike, the source gives them in different places.

As to `CC[C@H](C)[C@H](NC(=O)OC)C(=O)N1C[C@@H](COC)C[C@H]1c1nc2ccc3cc4c(cc3c2[nH]1)OCc1cc(-c2cnc([C@@H]3CC[C@H](C)N3C(=O)[C@@H](NC(=O)OC)[C@@H](C)OC)[nH]2)ccc1-4` [ED, methyl{(2S,3S)-1-[(2S,4S)-2-(9-{2-[(2S,5S)-1-{(2S,3R)-3-methoxy-2-[(methoxycarbonyl)amino]butanoyl}-5-methylpyrrolidin-2-yl]-1H-imidazol-5-yl}-1,11-dihydroisochromeno[4′,3′:6,7]naphtho[1,2-d]imidazol-2-yl)-4-(methoxymethyl)pyrrolidin-1-yl]-3-methyl-1-oxopentan-2-yl}carbamate], the EC50 is 0.029 nM in test [1]; 0.015 nM in test [2]; less than 0.1 nM in test [2] (activity range); 0.011 nM in test [3] (setting [8]); less than 0.1 nM in test [3] (setting [9]); 0.021 nM in test [4] (setting [10]). Further, the EC50 in test [4] (setting [11]) was less than 0.1 nM; in test [5] (setting [12]) it was 0.1 to 0.999 nM; in test [5] (setting [13]), 0.241 nM; in test [6] (setting [14]), 0.099 nM; in test [6] (setting [15]), less than 0.1 nM; in test [7] (setting [16]), 0.025 nM. Also, the EC50 in test [7] (setting [17]) was less than 0.1 nM.
Consider `COC[C@H]1C[C@@H](c2nc3ccc4cc5c(cc4c3[nH]2)OCc2cc(-c3cnc([C@@H]4CC[C@H](C)N4C(=O)[C@@H](NC(=O)OC)C(C)C)[nH]3)ccc2-5)N(C(=O)[C@@H](NC(=O)OC)C2CCOCC2)C1` [EF, methyl[(1 S)-2-[(2S,4S)-2-(9-{2-[(2S,5S)-1-{(2S)-2-[(methoxycarbonyl)amino]-3-methylbutanoyl}-5-methylpyrrolidin-2-yl]-1H-imidazol-5-yl}-1,11 dihydroisochromeno[4′,3′:6,7]naphtho[1,2-d]imidazol-2-yl)-4-(methoxymethyl)pyrrolidin-1-yl]-2-oxo-1-(tetra hydro-2H-pyran-4-yl)ethyl]carbamate], for which the EC50 in test [1] is 0.053 nM; in test [2], 0.039 nM; in test [2] (activity range), less than 0.1 nM; in test [3] (setting [8]) it was 0.014 nM; in test [3] (setting [9]), less than 0.1 nM; in test [4] (setting [10]) it was 0.023 nM. The EC50 in test [4] (setting [11]) was less than 0.1 nM; in test [5] (setting [12]) it was less than 0.1 nM; in test [5] (setting [13]), 0.091 nM; in test [6] (setting [14]), 0.12 nM; in test [6] (setting [15]), 0.1 to 0.999 nM; in test [6] (setting [18]), 0.102 nM. Besides, the figures for the EC50 in test [6] (setting [19]), in test [7] (setting [16]) and in test [7] (setting [17]) were 0.1 to 0.999 nM, 0.02 nM and less than 0.1 nM, respectively.
For the molecule `COC(=O)NC(C(=O)N1[C@@H](C)CC[C@H]1c1nc2ccc3cc4c(cc3c2[nH]1)OCc1cc(-c2cnc([C@@H]3CC[C@H](C)N3C(=O)[C@@H](NC(=O)OC)[C@@H](C)OC)[nH]2)ccc1-4)C1CCOCC1` (stereo partly drawn) [EG, methyl{2-[(2S,5S)-2-(9-{2-[(2S,5S)-1-{(2S,3R)-3-methoxy-2-[(methoxycarbonyl)amino]butanoyl}-5-methylpyrrolidin-2-yl]-1H-imidazol-5-yl}-1,11-dihydroisochromeno[4′,3′:6,7]naphtho[1,2-d]imidazol-2-yl)-5-methylpyrrolidin-1-yl]-2-oxo-1-(tetrahydro-2H-pyran-4-yl)ethyl}carbamate], the EC50 in test [1] was 0.045 nM; in test [2], 0.036 nM; in test [2] (activity range), less than 0.1 nM; in test [3] (setting [8]) it was 0.022 nM; in test [3] (setting [9]), less than 0.1 nM; in test [4] (setting [10]), 0.023 nM. For the same molecule, the EC50 in test [4] (setting [11]) was less than 0.1 nM; in test [5] (setting [12]), less than 0.1 nM; in test [5] (setting [13]) it was 0.072 nM; in test [6] (setting [14]), 0.076 nM; in test [6] (setting [15]), less than 0.1 nM; in test [6] (setting [18]), 0.103 nM. Further, the EC50 in test [6] (setting [19]) is 0.1 to 0.999 nM; in test [7] (setting [16]), 0.016 nM; in test [7] (setting [17]), less than 0.1 nM.
Consider `COC(=O)N[C@H](C(=O)N1[C@@H](C)CC[C@H]1c1nc2ccc3cc4c(cc3c2[nH]1)OCc1cc(-c2cnc([C@@H]3C[C@H](C)CN3C(=O)[C@@H](NC(=O)OC)C3CCOCC3)[nH]2)ccc1-4)C(C)C` [EJ, methyl[(2S)-1-{(2S,5S)-2-[9-(2-{(2S,4S)-1-[(2S)-2-[(methoxycarbonyl)amino]-2-(tetrahydro-2H-pyran-4-yl)acetyl]-4-methylpyrrolidin-2-yl}-1H-imidazol-5-yl)-1,11-dihydroisochromeno[4′,3′:6,7]naphtho[1,2-d]imidazol-2-yl]-5-methylpyrrolidin-1-yl}-3-methyl-1-oxobutan-2-yl]carbamate], for which the EC50 is 0.039 nM in test [1]; 0.016 nM in test [2]; less than 0.1 nM in test [2] (activity range); 0.028 nM in test [3] (setting [8]); less than 0.1 nM in test [3] (setting [9]); 0.041 nM in test [4] (setting [10]). In addition, the EC50 in test [4] (setting [11]) is less than 0.1 nM; in test [5] (setting [12]), 0.1 to 0.999 nM; in test [5] (setting [13]) it was 0.112 nM; in test [6] (setting [14]) it was 0.081 nM; in test [6] (setting [15]) it was less than 0.1 nM; in test [6] (setting [18]) it was 0.046 nM. For the same molecule, the EC50 in test [6] (setting [19]) was less than 0.1 nM; in test [7] (setting [16]), 0.017 nM; in test [7] (setting [17]), less than 0.1 nM.
On to `CC[C@H]1CC[C@@H](c2nc3ccc4cc5c(cc4c3[nH]2)OCc2cc(-c3cnc([C@@H]4CC[C@H](C)N4C(=O)[C@@H](NC(=O)OC)[C@@H](C)OC)[nH]3)ccc2-5)N1C(=O)[C@@H](NC(=O)OC)[C@@H](C)OC` [EK, methyl[(2S,3R)-1-{(2S,5S)-2-[5-(2-{(2S,5S)-5-ethyl-1-[N-(methoxycarbonyl)-O-methyl-L-threonyl]pyrrolidin-2-yl}-1,11-dihydroisochromeno[4′,3′:6,7]naphtho[1,2-d]imidazol-9-yl)-1H-imidazol-2-yl]-5-methylpyrrolidin-1-yl}-3-methoxy-1-oxobutan-2-yl]carbamate], for which the EC50 is 0.05 nM in test [1]; 0.034 nM in test [2]; less than 0.1 nM in test [2] (activity range); 0.03 nM in test [3] (setting [8]); less than 0.1 nM in test [3] (setting [9]); 0.116 nM in test [4] (setting [10]). Further, the EC50 in test [4] (setting [11]) is 0.1 to 0.999 nM; in test [5] (setting [12]), 0.1 to 0.999 nM; in test [5] (setting [13]), 0.238 nM; in test [6] (setting [14]), 0.173 nM; in test [6] (setting [15]), 0.1 to 0.999 nM; in test [7] (setting [16]) it was 0.025 nM. In addition, in test [7] (setting [17]), the EC50 was less than 0.1 nM.
For the molecule `CC[C@H]1CC[C@@H](c2ncc(-c3ccc4c(c3)COc3cc5c(ccc6nc([C@@H]7CC[C@H](C)N7C(=O)[C@@H](NC(=O)OC)[C@@H](C)OC)[nH]c65)cc3-4)[nH]2)N1C(=O)[C@@H](NC(=O)OC)[C@@H](C)OC` [EM, methyl[(2S,3R)-1-{(2S,5S)-2-ethyl-5-[5-(2-{(2S,5S)-1-[N-(methoxycarbonyl)-O-methyl-L-threonyl]-5-methylpyrrolidin-2-yl}-1,11dihydroisochromeno[4′,3′:6,7]naphtho[1,2-d]imidazol-9-yl)-1H-imidazol-2-yl]pyrrolidin-1-yl}-3-methoxy-1-oxobutan-2-yl]carbamate], the EC50 in test [1] is 0.02 nM; in test [2], 0.013 nM; in test [2] (activity range), less than 0.1 nM; in test [3] (setting [8]) it was 0.012 nM; in test [3] (setting [9]) it was less than 0.1 nM; in test [4] (setting [10]), 0.043 nM. Also, the EC50 in test [4] (setting [11]) is less than 0.1 nM; in test [5] (setting [12]), less than 0.1 nM; in test [5] (setting [13]), 0.082 nM; in test [6] (setting [14]) it was 0.061 nM; in test [6] (setting [15]), less than 0.1 nM; in test [7] (setting [16]), 0.008 nM. The EC50 in test [7] (setting [17]) was less than 0.1 nM.
